In article PMC10819729 (Pharmaceutics, 2023):
Counter-ions that a name gives are not always drawn. Like-named read-outs stand apart in the source and are kept apart here.

Tests used:
[1] = human, in vivo, cited from earlier work
in vivo = test: in vivo; design: species or system mice; settings: male, C57BL/6J, mouse, 30 mg/kg; for half-life: T1/2 (plasma)
Procedure: Adult male C57BL/6J mice (8–9 weeks, 23–27 g) were purchased from the Jackson Laboratory, Bar Harbor, ME, USA. Mice were housed in ventilated cages with controlled temperature and humidity, and a 12 h light/dark cycle. Food and water were available ad libitum, and animals were habituated to the experimental room for three days before the start of the study. All procedures were conducted according to a protocol approved by the Texas Tech University Health Sciences Center Institutional Animal Care and Use Committee (protocol 21039, approved on 26 July 2023). […] Plasma and brain samples were collected 5, 20, 60, 120, and 180 min after the drug administration. […] Mice were deeply anesthetized with isoflurane and decapitated, followed by blood collection in a microtube containing heparin. Plasma was obtained by centrifugation of the microtube for 10 min at 5000× g at 4 °C. The brains were quickly removed and delicately cleansed on filter paper with sterile saline, the surface vasculature was removed using gauze tipped in saline, and the forebrains were quickly frozen using dry ice. Plasma and brain samples were stored at −80 °C until bioanalysis. The brain samples were homogenized at 1:10 (w/v) in LC-MS-grade water using BioSpec Tissue-Tearor Homogenizer. The plasma sample was diluted 10-fold (v/v) in LC-MS-grade water. The plasma samples and brain homogenates were subjected to protein precipitation using ice-cold acetonitrile (1:4 ratio) containing 0.1% formic acid along with the IS (10 ng/mL). The samples underwent continuous vortexing for 5 min, followed by centrifugation at 12,800× g at 4 °C. The resulting clear supernatant was used for injection into the mass spectrometer. LC-MS/MS analysis was conducted using a QTRAP 5500 mass spectrometer (SCIEX, Foster City, CA, USA) connected with a SHIMADZU Prominence LC system (Kyoto, Japan), consisting of an LC-30AD solvent delivery unit, a DGU-20A3R degassing unit, a CTO-30A column oven, and a SIL-30AC autosampler. Chromatographic separation was achieved on an EVO-C18 100Å column (1.7 µm i.d., 50 × 2.1 mm). The mobile phase comprised 0.1% formic acid in water (A) and 0.1% formic acid in acetonitrile (B) at a flow rate of 0.3 mL/min. […] The autosampler and column temperatures were 4 °C and 40 °C, respectively. The injection volume was 2 μL. The mass spectrometric detection of the analytes was executed using multiple reaction monitoring (MRM) with an electrospray ionization (ESI) source in positive ion mode. The conditions were curtain gas, 35 psi; ion spray voltage, 5500 V; temperature, 500 °C; ion source gas 1, 50 psi; and ion source gas 2, 55 psi. […] For milnacipran-d10, which served as the IS, the MH^+ was monitored at m/z 257.2, whereas a fragment at m/z 110.2 was monitored as the product ion. […] Data acquisition and processing were carried out using Sciex Analyst (version 1.7) and MultiQuant software (version 3.0), respectively. The pharmacokinetic parameters were assessed using standard non-compartmental analysis. Microsoft Excel and GraphPad Prism 8.4.3 software were used for calculations and graphical presentation. The apparent first-order terminal rate constant (Kel) with 95% confidence interval (95% CI) was obtained in Prism by linear regression of log-transformed plasma concentration versus time data. The linear trapezoidal model was used for both IV and IP administration to determine area under the curve from time 0 to 3 h (AUC0-3). AUC0-∞ (area under the curve from time 0 to infinity) was obtained by extrapolation to infinity, using the mean concentration at the terminal time point and Kel. The standard errors (SE) of AUC0-3 and AUC0-∞ were calculated applying Bailer’s method for sparse data. Cmax and Tmax values after IP administration are based on actual measurements for the noted sampling time-points. The terminal T1/2 with CI was calculated as 0.693/Kel. […] For the IV route, Vd was calculated using the formula Dose/C0, and clearance (Cl) was determined as Vd*Kel. […]

[2] = cited from earlier work
[3] = human; cited from earlier work

In the case of CCN(CC)C(=O)C1(c2ccccc2)CC1CN (racemic) [milnacipran, (±)-[1R(S), 2S(R)]-2-(aminomethyl)-N, N-diethyl-1-phenylcyclopropanecarboxamide hydrochloride], the bioavailability ([1]; po) is listed as ~ 90%, the “time to peak plasma concentrations” value ([1]; po) is listed as 2 to 4 h and the terminal elimination half-life [1] is listed as 360 to 600 min. For the same compound, the volume of distribution [1] was 5.3 L/kg, the bioavailability (in vivo) was 92.5% and the AUC(0-inf) (in vivo; ip) was 11000 ng·h/mL. The AUC(0-t) (in vivo; ip) was 10300 ng·h/mL, the Cmax (in vivo; ip) was 8530 ± 690 ng/mL and the “Kterm (plasma)” value (in vivo; ip) was 0.016 (0.013 to 0.019) min^−1. The MRT (in vivo; ip) was 58.3 min, the Tmax (in vivo; ip) was 5 min and the Vd (in vivo; ip) was 3.37 L/kg. For the same compound, the clearance (in vivo; ip) was 39.5 mL/min/kg, the half-life (in vivo; ip) was 42.5 min and the Tmax (in vivo; ip, Tmax (brain)) was about 60 min. For the same compound, the AUC(0-inf) (in vivo; iv) was 11800 ng·h/mL, the AUC(0-t) (in vivo; iv) was 10400 ng·h/mL and the “Kterm (plasma)” value (in vivo; iv) was 0.012 (0.011 to 0.013) min^−1. The MRT (in vivo; iv) was 57 min, the “T1/2 (plasma)” value (in vivo; iv) was 59.2 (54.4 to 64.1) min and the Vd (in vivo; iv) was 3.65 L/kg. For the same compound, the clearance (in vivo; iv) was 42.7 mL/min/kg, the half-life (in vivo; iv) was 59 min and the Tmax (in vivo; iv, Tmax (brain)) was about 60 min. The half-life ([2]; rat, in vivo, iv, 4.5 mg/kg) was 402 min, the half-life ([2]; rats, intranasal, 20 mg/kg) was 67.9 min and the Plasma protein binding [3] was “around 13%”.
